Reference: patent US5596002A, “Method of treating chloroquine-resistant malaria with aminoquinoline derivatives” (Hoffmann-La Roche Inc., priority 1993, dated 1997)
In brackets after ≈: the same amount, converted by molar mass. Where two headings read alike, the source gives them in different places.

Key:
[1] = system: Plasmodium falciparum, chloroquine-resistant strain ItG2 F6; test: activity against P. falciparum in vitro, strain ItG2 F6; assay type: cell-based; settings: chloroquine-resistant strain ItG2 F6, 48 h-72 h, read-out: IC50 (50% growth inhibition)
Procedure: (§1) Test method for the determination of the activity against P. falciparum in vitro
(§2) The preparations of the present invention were tested on intraerythrocytary stages of P. falciparum from asynchronous cultures according to the method of Desjardin et al. (Desjardins, R. E. et al: Quantitative assessment of antimalarial activity in vitro by a semiautomated microdilution technique. Antimicrob. Agents Chemother. 16, 710-718, (1979)).
(§3) The culture medium consisted of RPMI 1640 with the addition of 25 mM HEPES, 25 mM NaHCO3, […] neomycin and 10% human serum (A^+). Human-A^+ erythrocytes were used as the P. falciparum host cells. The parasites were maintained at 37° C. in an atmosphere of 3% O2, 4% CO2, 93% N2 and at 95% relative humidity.
(§4) In order to determine the activity, the preparations were dissolved in DMSO, pre-diluted in the culture medium to a suitable starting concentration and subsequently titrated-out into microtitre plates in the 2nd stage over 6-7 steps. After the addition of the parasite culture (0.7% parasitemia in 2.5% erythrocyte suspension), the test plates were incubated under the conditions given above for 48 h-72 h. The parasite growth in the different preparation concentrations was determined using [G-^3 H]-hypoxanthin incorporation compared to untreated control cultures on the same test plates. The 50% growth inhibition (IC50) was calculated according to logit regression analysis from the resulting dosage-activity curve.
(§5) The preparations were tested on at least one chloroquine-resistant and one chloroquine-sensitive P. falciparum strain. Additional sensitive and resistant strains were also included for further characterization.
(§6) Table 1 below contains the IC50 values measured in vitro for the growth inhibition of chloroquine-sensitive and chloroquine-resistant strains of the human pathogenic Plasmodium falciparum.

[2] = system: Plasmodium falciparum, chloroquine-resistant strain K1; test: activity against P. falciparum in vitro, strain K1; assay type: cell-based; settings: chloroquine-resistant strain K1, 48 h-72 h; for IC50: Plasmodium falciparum, read-out: IC50 (50% growth inhibition)
Procedure: as §1, §2, §3, §4, §5, §6

[3] = system: Plasmodium falciparum, chloroquine-resistant strain W2; test: activity against P. falciparum in vitro, strain W2; assay type: cell-based; settings: chloroquine-resistant strain W2, 48 h-72 h, read-out: IC50 (50% growth inhibition)
Procedure: as §1, §2, §3, §4, §5, §6

[4] = system: Plasmodium falciparum, chloroquine-sensitive strain HB3; test: activity against P. falciparum in vitro, strain HB3; assay type: cell-based; settings: chloroquine-sensitive strain HB3, 48 h-72 h, read-out: IC50 (50% growth inhibition)
Procedure: as §1, §2, §3, §4, §5, §6

[5] = system: Plasmodium falciparum, chloroquine-resistant strain 7G8; test: activity against P. falciparum in vitro, strain 7G8; assay type: cell-based; settings: chloroquine-resistant strain 7G8, 48 h-72 h, read-out: IC50 (50% growth inhibition)
Procedure: as §1, §2, §3, §4, §5, §6

[6] = system: Plasmodium falciparum, chloroquine-sensitive strain FCH5C2; test: activity against P. falciparum in vitro, strain FCH5C2; assay type: cell-based; settings: chloroquine-sensitive strain FCH5C2, 48 h-72 h, read-out: IC50 (50% growth inhibition)
Procedure: as §1, §2, §3, §4, §5, §6

[7] = system: Plasmodium falciparum, chloroquine-sensitive strain Ro7 3; test: activity against P. falciparum in vitro, strain Ro7 3; assay type: cell-based; settings: chloroquine-sensitive strain Ro7 3, 48 h-72 h, read-out: IC50 (50% growth inhibition)
Procedure: as §1, §2, §3, §4, §5, §6

[8] = system: Plasmodium falciparum, chloroquine-resistant strain Indo; test: activity against P. falciparum in vitro, strain Indo; assay type: cell-based; settings: chloroquine-resistant strain Indo, 48 h-72 h, read-out: IC50 (50% growth inhibition)
Procedure: as §1, §2, §3, §4, §5, §6

[9] = system: Plasmodium falciparum, chloroquine-sensitive strain NF54; test: activity against P. falciparum in vitro, strain NF54; assay type: cell-based; settings: chloroquine-sensitive strain NF54, 48 h-72 h; for IC50: Plasmodium falciparum, read-out: IC50 (50% growth inhibition)
Procedure: as §1, §2, §3, §4, §5, §6

[10] = system: Plasmodium falciparum, chloroquine-sensitive strain RFMEF3; test: activity against P. falciparum in vitro, strain RFMEF3; assay type: cell-based; settings: chloroquine-sensitive strain RFMEF3, 48 h-72 h, read-out: IC50 (50% growth inhibition)
Procedure: as §1, §2, §3, §4, §5, §6

[11] = system: Plasmodium falciparum, chloroquine-resistant strain RFCR3; test: activity against P. falciparum in vitro, strain RFCR3; assay type: cell-based; settings: chloroquine-resistant strain RFCR3, 48 h-72 h, read-out: IC50 (50% growth inhibition)
Procedure: as §1, §2, §3, §4, §5, §6

[12] = system: Plasmodium berghei (strain ANKA); test: activity against Plasmodium berghei in vivo (infected mice); settings: mice; for ED50: single administration po, dose reducing average erythrocyte infection rate by 50%, read-out: ED50 (po); for inhibition in vivo at 10 mg/kg: 48 hours after treatment (D+3)
Procedure: Test method for the determination of the activity against Plasmodium berghei in vivo
The preparations according to the present invention were tested on mice infected with malaria pathogens (Plasmodium berghei). Male albino mice (IBM:MORO(SPF), FUELLINSDORF) weighing about 25 g were used as the test animals. They were kept in climatized rooms at 21°-22° C. in groups of 5 animals per cage. They received ad libitum a diet feed with a low PABA content ("NAFAG FUTTER" No. 9009 PAB-45, PABA content 45 mg/kg) and drinking water. On the first day of the test (D0) the test animals were infected with Plasmodium berghei (strain ANKA). For this there was used heparinized blood of a donor mouse with about 30% parasitemia, which was diluted with physiological saline such that it contains 10^8 parasitized erythrocytes per ml. 0.2 ml of this suspension was injected intravenously (i.v.) into the mice to be treated and into the control mice. In untreated control animals the parasitemia normally reaches 30-40% on the third day after the infection (D+3) and the test animals die between days +5 and +7.
The substances to be tested were dissolved or suspended in distilled water or in a mixture of 7% Tween 80, 3% alcohol (96%) and water. Usually, 0.25 ml of this solution or suspension was administered once subcutaneously and perorally to groups of 5 test animals. Treatment was effected 24 hours after the infection. 10 control animals were treated in the same manner with solvent or suspension medium per test.
All substances were tested in a first test in a single dosage of 10 mg/kg. Only those substances which in this test (10 mg/kg) had shown a parasitaemia reduction of 90% were used for the titration.
48 hours after the treatment (D+3), blood smears were prepared from all animals using blood from tail veins and were stained with Giemsa. The average erythrocyte infection rate (parasitemia in %) in the control groups as well as in the groups which had been treated with the test compounds was determined by counting under a microscope. The difference in the average values of the infection rates of control group (100%) and treated groups was calculated and expressed as a percentage reduction (GI %). The ED50 or ED90 was determined mathematically by means of the JMP programme (nonlinear fit). The ED50 (ED90) in mg/kg is that dose which after single administration reduces the average erythrocyte infection rate by 50% (90%) in comparison to the control group.
Table 2 below contains data with respect to the activity measured against Plasmodium berghei in mice: GI % is the percentage reduction in the parasitemia after a single dose of 10 mg/kg of the test substance administered perorally (po) or subcutaneously (sc); ED50 and ED90 are the effective doses of the test substance administered perorally or subcutaneously.

[13] = single dose 10 mg/kg po, read-out: GI % at 10 mg/kg (po): percentage reduction in the parasitemia
[14] = single dose 10 mg/kg sc, read-out: GI % at 10 mg/kg (sc): percentage reduction in the parasitemia

Row | Compound | IC50 [2] [µg/mL] | IC50 [9] [µg/mL] | ED50 [12] [mg/kg] | inhibition in vivo at 10 mg/kg [12, 13] [%] | inhibition in vivo at 10 mg/kg [12, 14] [%] | further results
1 | CCN(CC)CCNc1ccnc2cc(C(F)(F)F)ccc12 [Example 21, N1,N1 -Diethyl-N2-(7-trifluoromethyl-quinolin-4-yl)-ethane-1,2-diamine] | 0.034 (≈ 0.109 µM) | 0.021 (≈ 0.0674 µM) |  |  |  | IC50 [1]: 0.028 µg/mL (≈ 0.0899 µM); IC50 [3]: 0.057 µg/mL (≈ 0.183 µM); IC50 [4]: 0.033 µg/mL (≈ 0.106 µM); IC50 [5]: 0.049 µg/mL (≈ 0.157 µM); IC50 [6]: 0.035 µg/mL (≈ 0.112 µM); IC50 [7]: 0.028 µg/mL (≈ 0.0899 µM); IC50 [8]: 0.031 µg/mL (≈ 0.0996 µM); IC50 [10]: 0.035 µg/mL (≈ 0.112 µM); IC50 [11]: 0.054 µg/mL (≈ 0.173 µM)
2 | C[C@@H](CN(C)C)Nc1ccnc2cc(Cl)ccc12 [Example 33c, (S)-N2-(7-Chloro-quinolin-4-yl)-N1,N1-dimethyl-propane-1,2-diamine] | 0.024 (≈ 0.091 µM) | 0.008 (≈ 0.0303 µM) | 1.9 | 99.9 | 99.9 | 
3 | C[C@H](CN(C)C)Nc1ccnc2cc(Cl)ccc12 [Example 33d, (R)-N2-(7-Chloro-quinolin-4-yl)-N1,N1-dimethyl-propane-1,2-diamine] | 0.023 (≈ 0.0872 µM) | 0.008 (≈ 0.0303 µM) | 2.2 | 99.9 | 99.9 | 
4 | (R)-N1 -(7-Chloro-quinolin-4-yl)-N2,N2 -dimethyl-propane-1,2-diamine [Example 33h] |  |  |  |  |  | IC50 (50% growth inhibition) [2]: 0.018 µg/mL; IC50 (50% growth inhibition) [9]: 0.007 µg/mL

Now from value to compound, other results behind:

Row | IC50 [2] [µg/mL] | IC50 [9] [µg/mL] | Compound | ED50 [12] [mg/kg] | inhibition in vivo at 10 mg/kg [12, 13] [%] | inhibition in vivo at 10 mg/kg [12, 14] [%] | further results
5 | 0.053 (≈ 0.182 µM) | 0.012 (≈ 0.0411 µM) | CCN(CC)C[C@H](C)Nc1ccnc2cc(Cl)ccc12 [Example 33e, (S)-N2-(7-Chloro-quinolin-4-yl)-N1,N1-diethyl-propane-1,2-diamine] | 3.1 | 99.8 | 99.9 | 
6 | 0.041 (≈ 0.14 µM) | 0.012 (≈ 0.0411 µM) | CCN(CC)C[C@@H](C)Nc1ccnc2cc(Cl)ccc12 [Example 33f, (R)-N2 (7-Chloro-quinolin-4-yl)-N1,N1-diethyl-propane-1,2-diamine] | 2.8 | 99.8 | 99.9 | 
7 | 0.017 (≈ 0.0644 µM) | 0.005 (≈ 0.019 µM) | C[C@@H](CNc1ccnc2cc(Cl)ccc12)N(C)C [Example 33g, (S)-N1-(7-chloro-quinoline-4-yl)-N2,N2-dimethyl-propane-1,2-diamine] |  |  |  | 
